From ChEMBL document CHEMBL4007472, “Identification of novel TACE inhibitors compatible with topical application” (Bioorg Med Chem Lett, 2017)
≈ marks a conversion by molar mass, not a printed value.

How the values were obtained:
[1] = target: T1, Disintegrin and metalloproteinase domain-containing protein 17 (Homo sapiens, UniProt P78536); assay: Inhibition of recombinant human TACE catalytic domain using Mca-Pro-Leu-Ala-Gln-Ala-Val-Dpa-Arg-Ser-Ser-Ser-Arg-NH2 as substrate after 2 hrs by fluorescence assay
[2] = Stability in human liver microsomes assessed as parent compound remaining at 1 uM after 15 mins by LC-MS/MS analysis; assay type: ADME, microsome; settings: read-out: Stability
[3] = target: T1, Disintegrin and metalloproteinase domain-containing protein 17; assay: Inhibition of TACE in NHEK assessed as reduction in LPS/TPA-stimulated TNFalpha production preincubated for 1 hr followed by LPS/TPA stimulation for 24 hrs by HTRF assay
[4] = Aqueous solubility of the compound; assay type: physicochemical
[5] = target: Disintegrin and metalloproteinase domain-containing protein 17 (Sus scrofa, UniProt O77636); assay: Inhibition of porcine spleen TACE using Mca-Pro-LeuAla-Gln-Ala-Val-Dpa-Arg-Ser-Ser-Ser-[…]-NH2 as substrate by fluorescence assay
[6] = target: T1, Disintegrin and metalloproteinase domain-containing protein 17; assay: Inhibition of TACE in human PBMC assessed as inhibition of LPS-stimulated TNFalpha production
[7] = target: T1, Disintegrin and metalloproteinase domain-containing protein 17; assay: Inhibition of TACE (unknown origin)
[8] = target: T1, Disintegrin and metalloproteinase domain-containing protein 17; assay: Inhibition of TACE (unknown origin) by cell based assay
[9] = target: T1, Disintegrin and metalloproteinase domain-containing protein 17; assay: Inhibition of recombinant TACE catalytic domain (unknown origin) using Abz-LAQAVRSSSR-Dpa as substrate preincubated for 10 mins followed by substrate addition measured after 10 mins by FRET assay
[10] = target: Disintegrin and metalloproteinase domain-containing protein 17 (Mus musculus, UniProt Q9Z0F8); assay: Inhibition of TACE in mouse RAW264.7 cells assessed as inhibition of LPS-stimulated TNFalpha production pretreated for 1 hr followed by LPS stimulation for 4 hrs by ELISA; assay type: cell-based; settings: read-out: IC50
Chain of Disintegrin and metalloproteinase domain-containing protein 17 (Mus musculus, UniProt Q9Z0F8) (Q9Z0F8 whole entry, the tested form may be a part): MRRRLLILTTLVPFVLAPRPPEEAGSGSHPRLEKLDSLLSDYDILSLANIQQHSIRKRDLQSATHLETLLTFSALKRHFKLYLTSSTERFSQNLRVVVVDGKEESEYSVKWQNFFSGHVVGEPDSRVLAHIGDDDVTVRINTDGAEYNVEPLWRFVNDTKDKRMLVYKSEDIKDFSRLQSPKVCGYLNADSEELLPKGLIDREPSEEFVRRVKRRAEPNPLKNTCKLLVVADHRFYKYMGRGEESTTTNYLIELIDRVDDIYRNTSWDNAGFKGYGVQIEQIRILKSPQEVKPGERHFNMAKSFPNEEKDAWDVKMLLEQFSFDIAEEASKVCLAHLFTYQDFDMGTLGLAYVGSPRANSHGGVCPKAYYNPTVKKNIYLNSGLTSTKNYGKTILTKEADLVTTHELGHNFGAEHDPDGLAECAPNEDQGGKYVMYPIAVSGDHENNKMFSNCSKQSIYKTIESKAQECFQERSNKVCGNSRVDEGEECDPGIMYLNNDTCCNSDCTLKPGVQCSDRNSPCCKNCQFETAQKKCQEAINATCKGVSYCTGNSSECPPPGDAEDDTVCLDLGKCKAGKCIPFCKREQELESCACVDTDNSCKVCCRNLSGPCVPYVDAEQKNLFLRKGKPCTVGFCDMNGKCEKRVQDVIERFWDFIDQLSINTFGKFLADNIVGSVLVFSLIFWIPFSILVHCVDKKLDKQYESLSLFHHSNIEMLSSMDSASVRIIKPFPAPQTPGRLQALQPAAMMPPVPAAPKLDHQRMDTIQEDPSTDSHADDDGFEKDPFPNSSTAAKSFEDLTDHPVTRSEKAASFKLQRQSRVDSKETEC

T1 sequence (P78536 whole entry, the tested form may be a part): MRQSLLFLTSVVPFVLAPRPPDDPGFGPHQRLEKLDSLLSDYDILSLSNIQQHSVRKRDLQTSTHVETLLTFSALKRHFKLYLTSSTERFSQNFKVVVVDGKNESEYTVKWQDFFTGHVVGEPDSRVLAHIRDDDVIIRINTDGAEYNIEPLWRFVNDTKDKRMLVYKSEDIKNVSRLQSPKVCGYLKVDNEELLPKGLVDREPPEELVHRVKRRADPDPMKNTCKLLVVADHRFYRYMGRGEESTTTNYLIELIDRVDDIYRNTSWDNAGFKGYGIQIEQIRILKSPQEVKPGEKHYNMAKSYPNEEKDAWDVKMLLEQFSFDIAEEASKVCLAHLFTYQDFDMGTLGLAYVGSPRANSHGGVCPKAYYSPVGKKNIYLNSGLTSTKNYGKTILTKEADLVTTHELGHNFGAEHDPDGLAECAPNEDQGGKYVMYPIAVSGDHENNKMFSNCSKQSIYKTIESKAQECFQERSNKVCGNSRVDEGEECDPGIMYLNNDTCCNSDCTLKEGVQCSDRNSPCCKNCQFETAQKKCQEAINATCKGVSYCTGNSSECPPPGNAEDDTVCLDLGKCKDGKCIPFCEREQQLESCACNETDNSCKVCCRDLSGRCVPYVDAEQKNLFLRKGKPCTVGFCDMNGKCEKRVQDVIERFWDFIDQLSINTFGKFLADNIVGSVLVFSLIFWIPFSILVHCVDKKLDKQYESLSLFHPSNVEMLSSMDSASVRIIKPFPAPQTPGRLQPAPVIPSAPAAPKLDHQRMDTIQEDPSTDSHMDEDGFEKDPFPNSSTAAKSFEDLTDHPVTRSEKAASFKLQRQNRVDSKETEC
Chain of Disintegrin and metalloproteinase domain-containing protein 17 (Sus scrofa, UniProt O77636) (O77636 whole entry, the tested form may be a part): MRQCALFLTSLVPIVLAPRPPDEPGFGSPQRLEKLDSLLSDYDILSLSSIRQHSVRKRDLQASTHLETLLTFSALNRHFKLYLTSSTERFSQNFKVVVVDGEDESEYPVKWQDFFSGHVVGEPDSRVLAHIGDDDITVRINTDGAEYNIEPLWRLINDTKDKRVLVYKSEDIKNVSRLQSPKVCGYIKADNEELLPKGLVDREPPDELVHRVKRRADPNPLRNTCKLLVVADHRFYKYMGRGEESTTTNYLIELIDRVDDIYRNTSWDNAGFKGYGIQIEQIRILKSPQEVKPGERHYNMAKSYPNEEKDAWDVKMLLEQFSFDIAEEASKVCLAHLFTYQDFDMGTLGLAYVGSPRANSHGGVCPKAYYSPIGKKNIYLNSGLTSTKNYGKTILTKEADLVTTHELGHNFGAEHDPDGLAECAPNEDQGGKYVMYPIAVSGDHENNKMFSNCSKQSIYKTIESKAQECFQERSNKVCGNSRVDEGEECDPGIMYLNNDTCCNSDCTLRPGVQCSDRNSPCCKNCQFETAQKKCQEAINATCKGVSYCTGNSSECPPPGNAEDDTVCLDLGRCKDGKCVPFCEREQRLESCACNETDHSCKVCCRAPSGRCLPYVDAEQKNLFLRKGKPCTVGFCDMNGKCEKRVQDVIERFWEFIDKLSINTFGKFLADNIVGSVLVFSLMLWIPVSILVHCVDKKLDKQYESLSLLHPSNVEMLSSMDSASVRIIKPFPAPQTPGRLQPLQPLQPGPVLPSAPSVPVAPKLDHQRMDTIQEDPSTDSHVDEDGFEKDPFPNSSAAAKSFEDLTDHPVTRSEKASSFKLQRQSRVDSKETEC

Compound	IC50 [1]	IC50 [5]	IC50 [6]	further results
CC(=O)N1CCN(S(=O)(=O)c2ccc(OCc3cc(C)nc4c3CCCC4)cc2)CC1C(=O)NO (stereo not given)	14 nM			remaining at […], 1 µM [2]: 92%; IC50 [3]: 9100 nM; solubility [4]: 61 µM (≈ 30.7 µg/mL)
CC(=O)N1C[C@@H](S(=O)(=O)c2ccc(OCc3cc(C)nc4c3CCCC4)cc2)C[C@H]1C(=O)NO	350 nM			IC50 [3]: > 10000 nM
Cc1cc(COc2ccc(S(=O)(=O)N3CCN(S(C)(=O)=O)C(C(=O)NO)C3)cc2)c2c(n1)CCCC2 (stereo not given)	29 nM			remaining at […], 1 µM [2]: 88%
Cc1cc(COc2ccc(S(=O)(=O)N3CCC(C(=O)NO)C3)cc2)c2c(n1)CCCC2 (stereo not given)	210 nM			IC50 [3]: > 10000 nM
Cc1nc(COc2ccc3c(c2)NCCN([C@@H](C(=O)NO)C(C)C)S3)sc1C		290 nM	24500 nM	
Cc1cc(COc2ccc(S(=O)(=O)N3CCN(C(=O)c4ccccc4)C(C(=O)NO)C3)cc2)c2c(n1)CCCC2 (stereo not given)	16 nM			remaining at […], 1 µM [2]: 85%
COc1cc(COc2ccc3c(c2)NCCN([C@H](C)C(=O)NO)S3)cc(OC)c1		27 nM	770 nM	
Cc1cc(COc2ccc(S(=O)(=O)N3CCN(C(=O)CC(C)C)C(C(=O)NO)C3)cc2)c2c(n1)CCCC2 (stereo not given)	23 nM			remaining at […], 1 µM [2]: 64%
C[C@H](C(=O)NO)N1CCNc2cc(Oc3ccc([N+](=O)[O-])cc3)ccc2S1		11 nM	1200 nM	
CCOc1cc(COc2ccc3c(c2)NCCN([C@H](CCC(=O)OC)C(=O)NO)S3)cc(OCC)c1		242 nM	6200 nM	
Cc1cc(COc2ccc3c(c2)NCCN([C@H](C)C(=O)NO)S3)cc(C)n1		544 nM	2900 nM	
COC(=O)CC[C@H](C(=O)NO)N1CCNc2cc(OCc3cc(OC)cc(OC)c3)ccc2S1		177 nM	7200 nM	
COc1cc(COc2ccc3c(c2)NCCN([C@H](CC(C)C)C(=O)NO)S3)cc(OC)c1		17 nM	5400 nM	
Cc1cc(COc2ccc(S(=O)(=O)N3CCC(C)(C(=O)NO)C3)cc2)c2ccccc2n1 (stereo not given)	35 nM			IC50 [3]: > 10000 nM; solubility [4]: 41 µM (≈ 18.7 µg/mL)
COc1cc(COc2ccc3c(c2)NCCN([C@H](CCCCNS(C)(=O)=O)C(=O)NO)S3)cc(OC)c1		5 nM	1900 nM	
COC(=O)CCC[C@H](C(=O)NO)N1CCNc2cc(OCc3cc(OC)cc(OC)c3)ccc2S1		10 nM	900 nM	
C[C@H](C(=O)NO)N1CCNc2cc(Oc3ccc(C(F)(F)F)cc3)ccc2S1		758 nM	840 nM	
CCOc1cc(COc2ccc3c(c2)NCCN([C@@H](C(=O)NO)C(C)C)S3)cc(OCC)c1		51 nM	8200 nM	
Cc1cc(COc2ccc(S(=O)(=O)N3CCN(C)C(C(=O)NO)C3)cc2)c2c(n1)CCCC2 (stereo not given)	160 nM			remaining at […], 1 µM [2]: 80%
CC(C)C[C@H](C(=O)NO)N1CCNc2cc(OCc3ccccc3)ccc2S1		177 nM	350 nM	
Cc1cc(COc2ccc(S(=O)(=O)N3CCN(C(=O)C4CCC4)C(C(=O)NO)C3)cc2)c2c(n1)CCCC2 (stereo not given)	19 nM			remaining at […], 1 µM [2]: 83%
CC(C)C[C@H](C(=O)NO)N1CCNc2cc(O)ccc2S1		89 nM	9500 nM	
Cc1cc(COc2ccc(S(=O)(=O)N3CCCC(C(=O)NO)C3)cc2)c2ccccc2n1 (stereo not given)	60 nM			IC50 [3]: > 10000 nM; solubility [4]: < 1 µM
CCOc1cc(COc2ccc3c(c2)NCCN([C@H](C)C(=O)NO)S3)cc(OCC)c1		81 nM	4500 nM	
COc1cc(COc2ccc3c(c2)NCCN([C@@H](C(=O)NO)C(C)C)S3)cc(OC)c1		10 nM	4000 nM	

Compound	IC50 [1]	IC50 [5]	IC50 [6]	further results
COC(=O)N1CCN(S(=O)(=O)c2ccc(OCc3cc(C)nc4c3CCCC4)cc2)CC1C(=O)NO (stereo not given)	40 nM			remaining at […], 1 µM [2]: 100%
CNC(=O)[C@@H]1Cc2ccc(cc2)OCCCC[C@H](C(=O)NO)[C@@H](CCCc2cc(C(F)(F)F)cc(C(F)(F)F)c2)C(=O)N1				IC50 [7]: 31.6 nM; IC50 ([8]; read-out: pIC50 (converted)): 316 nM
COCCOc1cc(CCC[C@H]2C(=O)N[C@H](C(=O)c3ccccc3)Cc3ccc(cc3)OCCCC[C@@H]2C(=O)NO)cc(OC)c1				IC50 [7]: 79.4 nM; IC50 ([8]; read-out: pIC50 (converted)): 15800 nM
CCC(=O)N1CCN(S(=O)(=O)c2ccc(OCc3cc(C)nc4c3CCCC4)cc2)CC1C(=O)NO (stereo not given)	23 nM			remaining at […], 1 µM [2]: 100%
CNC(=O)[C@@H]1Cc2ccc(cc2)OCCCC[C@H](C(=O)NO)[C@@H](CCCc2cc(OC)ccc2OC)C(=O)N1				IC50 [7]: 6.31 nM; IC50 ([8]; read-out: pIC50 (converted)): 3980 nM
Cc1cc(COc2ccc(S(=O)(=O)N3Cc4ccccc4C(C(=O)NO)C3)cc2)c2ccccc2n1 (stereo not given)	84 nM			IC50 [3]: > 10000 nM
Cc1cc(COc2ccc(S(=O)(=O)NC[C@@H](C(=O)NO)N3CCCCC3)cc2)c2c(n1)CCCC2	6 nM			IC50 [3]: 60 nM
C[C@H](C(=O)NO)N1CCNc2cc(Oc3cccc([N+](=O)[O-])c3)ccc2S1		129 nM	470 nM	
Cc1cc(COc2ccc(S(=O)(=O)N(C)[C@@H]3[C@@H]4CC[C@@H](C4)[C@@H]3C(=O)NO)cc2)c2ccccc2n1				IC50 ([9]; read-out: pIC50 (converted)): 1 nM; IC50 [10]: 52 nM
Cc1cc(COc2ccc(S(=O)(=O)N3CCN(C(=O)C4CC4)C(C(=O)NO)C3)cc2)c2c(n1)CCCC2 (stereo not given)	13 nM			remaining at […], 1 µM [2]: 88%; IC50 [3]: 3100 nM; solubility [4]: 58 µM (≈ 30.7 µg/mL)
Cc1cc(COc2ccc(S(=O)(=O)N[C@@H]3COC[C@@H]3C(=O)NO)cc2)c2ccccc2n1				IC50 ([9]; read-out: pIC50 (converted)): 0.631 nM; IC50 [10]: 12 nM
CCOc1cc(COc2ccc3c(c2)NCCN([C@H](CCCC(=O)OC)C(=O)NO)S3)cc(OCC)c1		13 nM	1100 nM	
C[C@H](C(=O)NO)N1CCNc2cc(OCc3cc(Cl)cc(Cl)c3)ccc2S1		153 nM	940 nM	
Cc1cc(COc2ccc(S(=O)(=O)N(C)[C@@H]3CCC[C@]3(CO)C(=O)NO)cc2)c2ccccc2n1				IC50 ([9]; read-out: IC50): 0.6 nM; IC50 [10]: 440 nM
Cc1cc(COc2ccc(S(=O)(=O)N(C)[C@@H]3COC[C@@H]3C(=O)NO)cc2)c2ccccc2n1 (relative stereo)				IC50 ([9]; read-out: pIC50 (converted)): 1.26 nM; IC50 [10]: 930 nM
Cc1cc(COc2ccc(S(=O)(=O)N3CCN(C4CCC4)C(C(=O)NO)C3)cc2)c2c(n1)CCCC2 (stereo not given)	150 nM			remaining at […], 1 µM [2]: 54%; IC50 [3]: > 10000 nM
CC(=O)N1CC[C@@H](NS(=O)(=O)c2ccc(OCc3cc(C)nc4ccccc34)cc2)[C@@](C)(C(=O)NO)C1				IC50 ([9]; read-out: pIC50 (converted)): 6.31 nM; IC50 [10]: 1000 nM
O=C(c1ccccc1)[C@@H]1Cc2ccc(cc2)OCCCC[C@H](C(=O)NO)[C@@H](CCCc2cc(Br)cc(Br)c2)C(=O)N1				IC50 [7]: 79.4 nM; IC50 ([8]; read-out: IC50): 5000 nM
CNC(=O)[C@@H]1Cc2ccc(cc2)OCCCC[C@H](C(=O)NO)[C@@H](CCCc2ccc(Cl)cc2)C(=O)N1				IC50 [7]: 3.16 nM; IC50 ([8]; read-out: pIC50 (converted)): 398 nM
Cc1cc(COc2ccc(S(=O)(=O)N[C@@H]3CCC[C@]3(C)C(=O)NO)cc2)c2ccccc2n1				IC50 ([9]; read-out: IC50): 0.6 nM; IC50 [10]: 270 nM
Cc1cc(COc2ccc(S(=O)(=O)N[C@@H]3CN(C(=O)NC(C)(C)C)CC[C@@H]3C(=O)NO)cc2)c2ccccc2n1				IC50 ([9]; read-out: pIC50 (converted)): 1.26 nM; IC50 [10]: 58 nM
Cc1cc(COc2ccc(S(=O)(=O)N3CCN(C(=O)C(C)C)C(C(=O)NO)C3)cc2)c2c(n1)CCCC2 (stereo not given)	26 nM			remaining at […], 1 µM [2]: 91%
Cc1cc(COc2ccc(S(=O)(=O)N[C@@H]3[C@H]4CC[C@H](C4)[C@@H]3C(=O)NO)cc2)c2ccccc2n1				IC50 ([9]; read-out: IC50): 0.6 nM; IC50 [10]: 18 nM
Cc1cc(COc2ccc(S(=O)(=O)N[C@@H]3CCC[C@]3(F)C(=O)NO)cc2)c2ccccc2n1				IC50 ([9]; read-out: IC50): 0.6 nM; IC50 [10]: 19 nM
